In paper PMC11133627, “CATH-2-derived antimicrobial peptide inhibits multidrug-resistant Escherichia coli infection in chickens” (Frontiers in Cellular and Infection Microbiology, 2024):
Ends that are not written are not given here.

How the values were obtained:
[1] = system: E. coli clinical isolate E16; assay: Drug-sensitivity test (paper disc, inhibition zone); type: cell-based, Escherichia coli; parameters: key to Drug sensitivity of E. coli E16: R: resistant strains; I: intermediate strains; S: sensitive strains; details: 6 mm antibiotic paper on LB agar, 1×10^6 CFU/mL, 24h 37°C, inhibition zone diameter
Description: (§1) E. coli (ATCC 8739) and clinical isolates of E. coli (E1, E9, E12, E14, E16, and E18) were stored at the Animal Biochemical Laboratory of Shanxi Agricultural University and grown in Luria-Bertani (LB) broth as previously reported ([Zhao et al., 2021]). Circular 6 mm paper pieces were prepared with filter paper and autoclaved for sterilization. […] Then, 0.5 mL of antibiotic solution was added to 100 sterilized papers. Subsequently, the paper pieces were fully infiltrated and dried in a vacuum drying oven to produce antibiotic susceptibility papers. The E. coli strain was retrieved from the -20°C freezer and activated by incubating it on LB agar media at 37°C for 24h. Individual colonies were selected and transferred to LB liquid media. Thereafter, the E. coli suspension was obtained by shaking at 37°C and 160 r/min for 18h. The obtained suspension was centrifuged at 5000 r/min for 5min, after which the supernatant was discarded, and the bacteria were resuspended in fresh medium to a concentration of 1×10^6 CFU/mL. Two hundred microliters of the bacterial suspension mentioned above was spread evenly onto LB agar medium. Then, the antibiotic susceptibility papers were placed on the medium surface using sterile tweezers. After 24h of incubation at 37°C, the diameter of the inhibition zone was measured to determine the susceptibility of E. coli to antibiotics.

[2] = system: E. coli clinical isolate E14; assay: as above; type: cell-based, Escherichia coli; parameters: key to Drug sensitivity of E. coli E14: R: resistant strains; I: intermediate strains; S: sensitive strains; details: 6 mm antibiotic paper on LB agar, 1×10^6 CFU/mL, 24h 37°C, inhibition zone diameter
Description: as §1

[3] = system: E. coli (E16); assay: Chicken infection with MDR E. coli; type: in vivo
Description: Except for the blank control group injected with 500 μL of normal saline, the other four groups were injected with 500 μL of 3×10^9 CFU/mL E. coli (E16) into the pectoral muscles. […] Clinical symptoms and were observed and documented for the chickens in each group after infection. After 72h, the chickens in each group were euthanized and examined for internal organ damage. Paraffin sections were prepared for microscopic examination of pathological changes. Under sterile conditions, 1 g samples of heart, liver, and spleen were collected, and each sample was supplemented with 20 mL of sterile PBS. After thorough grinding, the sample was diluted to the appropriate multiple, and 100 μL of the diluent was spread onto LB agar medium. The plates were incubated for 24h, after which the colonies were counted.

[4] = system: E. coli clinical isolate E9; assay: Drug-sensitivity test (paper disc, inhibition zone); type: cell-based, Escherichia coli; parameters: key: R: resistant strains; I: intermediate strains; S: sensitive strains; details: 6 mm antibiotic paper on LB agar, 1×10^6 CFU/mL, 24h 37°C, inhibition zone diameter
Description: as §1

[5] = system: E. coli (ATCC 8739); assay: as above; type: cell-based, Escherichia coli; parameters: key: R: resistant strains; I: intermediate strains; S: sensitive strains; details: 6 mm antibiotic paper on LB agar, 1×10^6 CFU/mL, 24h 37°C, inhibition zone diameter
Description: as §1

[6] = system: E. coli clinical isolate E18; assay: as above; type: cell-based, Escherichia coli; parameters: key: R: resistant strains; I: intermediate strains; S: sensitive strains; details: 6 mm antibiotic paper on LB agar, 1×10^6 CFU/mL, 24h 37°C, inhibition zone diameter
Description: as §1

[7] = system: E. coli clinical isolate E12; assay: as above; type: cell-based, Escherichia coli; parameters: key to Drug sensitivity of E. coli E12: R: resistant strains; I: intermediate strains; S: sensitive strains; details: 6 mm antibiotic paper on LB agar, 1×10^6 CFU/mL, 24h 37°C, inhibition zone diameter
Description: as §1

[8] = system: E. coli clinical isolate E1; type: cell-based; parameters: key: R: resistant strains; I: intermediate strains; S: sensitive strains; details: 6 mm antibiotic paper on LB agar, 1×10^6 CFU/mL, 24h 37°C, inhibition zone diameter
Description: as §1

[9] = system: E. coli clinical isolate E1; assay: microbe, parasite or virus in culture
Description: (§2) The minimum inhibitory concentrations (MICs) of the AMPs were determined using the microbroth dilution technique ([van Harten et al., 2021]). One hundred microliters of bacterial suspension at a concentration of 1×10^6 CFU/mL was pipetted into a 96-well plate. Then, 100 μL of AMP or gentamicin at various concentrations was added, while the bacterial suspension without AMPs and blank medium were used as controls.

[10] = system: E. coli (ATCC 8739); type: cell-based, Escherichia coli; details: ATCC 8739, 1 h
Description: The MICs of the AMPs against E. coli (ATCC 8739) at different temperatures and physiological salt concentrations were evaluated. The thermal stability of the AMPs was assessed by incubating them at a concentration of 500 μg/mL for 1h at 0, 37, and 100°C, using untreated AMPs as a control. The salt ion stability of the AMPs was determined by incubating them at a concentration of 500 μg/mL in solutions of NaCl (150 mM), KCl (4.5 mM), MgCl2 (1 mM), and CaCl2 (2.5 mM) for 1h, using untreated samples as controls. The changes in the MICs of the AMPs were assessed following these experimental procedures.

[11] = system: E. coli clinical isolate E12; assay: microbe, parasite or virus in culture; type: cell-based, Escherichia coli; details: for MIC against E. coli E12: clinical isolate E12, 18 h; for MBC against E. coli E12: clinical isolate E12, 24 h
Description: as §2

[12] = system: E. coli clinical isolate E9; assay: microbe, parasite or virus in culture; type: cell-based, Escherichia coli; details: for MIC against E. coli E9: clinical isolate E9, 18 h; for MBC against E. coli E9: clinical isolate E9, 24 h
Description: as §2

[13] = system: E. coli (ATCC 8739); assay: microbe, parasite or virus in culture; type: cell-based, Escherichia coli; details: for MIC against E. coli ATCC 8739: ATCC 8739, 18 h; for MBC against E. coli ATCC 8739: ATCC 8739, 24 h
Description: as §2

[14] = system: E. coli clinical isolate E16; assay: microbe, parasite or virus in culture; type: cell-based, Escherichia coli; details: for MIC against E. coli E16: clinical isolate E16, 18 h; for MBC against E. coli E16: clinical isolate E16, 24 h
Description: as §2

[15] = system: E. coli clinical isolate E14; assay: microbe, parasite or virus in culture; type: cell-based, Escherichia coli; details: for MIC against E. coli E14: clinical isolate E14, 18 h; for MBC against E. coli E14: clinical isolate E14, 24 h
Description: as §2

[16] = system: E. coli clinical isolate E18; assay: microbe, parasite or virus in culture; type: cell-based, Escherichia coli; details: for MIC against E. coli E18: clinical isolate E18, 18 h; for MBC against E. coli E18: clinical isolate E18, 24 h
Description: as §2

[17] = system: E. coli strains (ATCC 8739 and MDR clinical isolates); type: cell-based, Escherichia coli; details: ATCC 8739, 18 h
Description: as §2

Molecule	MIC against E. coli E1 ([9]; clinical isolate E1, 18 h)	MIC against E. coli (ATCC 8739), Salt Stability CaCl2 (2.5 mM) [10]	MIC against E. coli (ATCC 8739), Salt Stability KCl (4.5 mM) [10]	MIC against E. coli (ATCC 8739), Salt Stability MgCl2 (1 mM) [10]	MIC against E. coli (ATCC 8739), Salt Stability NaCl (150 mM) [10]	MIC against E. coli (ATCC 8739), Thermal Stability 0°C [10]	MIC against E. coli (ATCC 8739), Thermal Stability 37°C [10]	MIC against E. coli (ATCC 8739), Thermal Stability 100°C [10]	MIC against E. coli E12 [11]	MBC against E. coli E12 [11]	MIC against E. coli E9 [12]	MBC against E. coli E9 [12]	MIC against E. coli ATCC 8739 [13]	MBC against E. coli ATCC 8739 [13]	MIC against E. coli E16 [14]	MBC against E. coli E16 [14]	MIC against E. coli E14 [15]	MBC against E. coli E14 [15]	MIC against E. coli E18 [16]	MBC against E. coli E18 [16]	further results
CCN1CCN(c2cc3c(cc2F)c(=O)c(C(=O)O)cn3C2CC2)CC1 [enrofloxacin]	–	–	–	–	–	–	–	–	–	–	–	–	–	–	–	–	–	–	–	–	Drug sensitivity of E. coli E16 [1]: R; Drug sensitivity of E. coli E14 [2]: R; 3-day mortality rate ([3]; 200 μg/mL, 500 μL into pectoral muscle 4h after 1.5×10^9 CFU E16): 50%; Survival rate compared with untreated group (in words) ([3]; 3 days): no difference in survival rate; Bacterial loads in the heart, liver and spleen (in words) ([3]; after 3 days of infection, vs infected untreated): affected only the heart bacterial load; Drug sensitivity of E. coli E9 [4]: R; Drug sensitivity of E. coli ATCC 8739 [5]: S; Drug sensitivity of E. coli E18 [6]: R; Drug sensitivity of E. coli E12 [7]: R; Drug sensitivity of E. coli E1 [8]: R
RFGRFLRKIRFFRLK [C2-5]	8 µg/mL	8 µg/mL	4 µg/mL	4 µg/mL	4 µg/mL	1 µg/mL	1 µg/mL	4 µg/mL	8 µg/mL	8 µg/mL	64 µg/mL	128 µg/mL	1 µg/mL	1 µg/mL	16 µg/mL	16 µg/mL	8 µg/mL	8 µg/mL	16 µg/mL	32 µg/mL	MBC against E. coli E1 ([9]; clinical isolate E1, 24 h): 8 µg/mL
RFGRFLRKIRRFIPK [C2-1]	–	8 µg/mL	2 µg/mL	2 µg/mL	0.5 µg/mL	2 µg/mL	2 µg/mL	2 µg/mL	1 µg/mL	1 µg/mL	0.5 µg/mL	1 µg/mL	2 µg/mL	4 µg/mL	16 µg/mL	64 µg/mL	16 µg/mL	16 µg/mL	2 µg/mL	4 µg/mL	MBC against E. coli E1 ([9]; 50 μL from fully inhibited wells plated on LB agar, colonies counted after 24h 37°C): 16 µg/mL; MIC against E. coli E1 ([9]; microbroth dilution, 1×10^6 CFU/mL, 37°C 18h, turbidity): 16 µg/mL; MIC range over E. coli strains [17]: 0.5 to 16 µg/mL
RFGRFLRKIRRFRPK [CATH-2 (1-15), reference compound]	–	64 µg/mL	16 µg/mL	16 µg/mL	32 µg/mL	64 µg/mL	64 µg/mL	32 µg/mL	8 µg/mL	8 µg/mL	4 µg/mL	4 µg/mL	64 µg/mL	64 µg/mL	32 µg/mL	64 µg/mL	64 µg/mL	–	64 µg/mL	64 µg/mL	–
RFGRHLRKIIRFRIK [C2-3]	32 µg/mL	8 µg/mL	4 µg/mL	4 µg/mL	16 µg/mL	16 µg/mL	16 µg/mL	8 µg/mL	1 µg/mL	1 µg/mL	2 µg/mL	4 µg/mL	16 µg/mL	16 µg/mL	16 µg/mL	64 µg/mL	8 µg/mL	8 µg/mL	16 µg/mL	32 µg/mL	MBC against E. coli E1 ([9]; clinical isolate E1, 24 h): 64 µg/mL
RFGRNLRKIRRFWPK [C2-4]	128 µg/mL	32 µg/mL	32 µg/mL	16 µg/mL	32 µg/mL	16 µg/mL	16 µg/mL	16 µg/mL	16 µg/mL	32 µg/mL	64 µg/mL	128 µg/mL	16 µg/mL	16 µg/mL	64 µg/mL	64 µg/mL	32 µg/mL	64 µg/mL	128 µg/mL	128 µg/mL	MBC against E. coli E1 ([9]; clinical isolate E1, 24 h): 128 µg/mL
